Numbered stars: 1 amine (or outer) side, 2 acyl side, 3 side chain; on linkers, the order of the positions; unused ones are H or OH. Bridge positions count the residues as written; N and C are the ends. Square brackets hold non-standard residues; d marks the D form. Peptide text beside a SMILES is read from it. * marks the point of attachment. Benzoyl(4-NO2) = O=C(c1ccc([N+](=O)[O-])cc1)*; Pro(5R-Ph) = O=C(O)[C@@H]1CC[C@H](c2ccccc2)N1; Benzoyl(3,5-(OH)2) = O=C(c1cc(O)cc(O)c1)*; Benzoyl(4-CF3) = O=C(c1ccc(C(F)(F)F)cc1)*; Benzoyl(4-Ph) = O=C(c1ccc(-c2ccccc2)cc1)*; Phenylacetyl(4-Cl) = O=C(Cc1ccc(Cl)cc1)*; NH(CH2CH2O)2CH2CH2NH2 = NCCOCCOCCN*; dBta = N[C@H](Cc1csc2ccccc12)C(=O)O; Cyclohexylacetyl = O=C(CC1CCCCC1)*; Hydrocinnamoyl = O=C(CCc1ccccc1)*; NMeR = CN[C@@H](CCCNC(=N)N)C(=O)O; dCit = NC(=O)NCCC[C@@H](N)C(=O)O; hArg = N=C(N)NCCCC[C@H](N)C(=O)O; NMeD = CN[C@@H](CC(=O)O)C(=O)O; Agp = N=C(N)NC[C@H](N)C(=O)O; Suc = O=C(CCC(=O)[*:2])[*:1]; Isobutyryl = CC(C)C(=O)*; Pentanoyl = CCCCC(=O)*; X3 = Cc1nc(C(=O)*)cs1; βAla = NCCC(=O)O; Sar = CNCC(=O)O

The IC50 is the concentration that inhibits the measured activity by half.

αvβ3 integrin, sequence (P06756 31-889 limits assumed): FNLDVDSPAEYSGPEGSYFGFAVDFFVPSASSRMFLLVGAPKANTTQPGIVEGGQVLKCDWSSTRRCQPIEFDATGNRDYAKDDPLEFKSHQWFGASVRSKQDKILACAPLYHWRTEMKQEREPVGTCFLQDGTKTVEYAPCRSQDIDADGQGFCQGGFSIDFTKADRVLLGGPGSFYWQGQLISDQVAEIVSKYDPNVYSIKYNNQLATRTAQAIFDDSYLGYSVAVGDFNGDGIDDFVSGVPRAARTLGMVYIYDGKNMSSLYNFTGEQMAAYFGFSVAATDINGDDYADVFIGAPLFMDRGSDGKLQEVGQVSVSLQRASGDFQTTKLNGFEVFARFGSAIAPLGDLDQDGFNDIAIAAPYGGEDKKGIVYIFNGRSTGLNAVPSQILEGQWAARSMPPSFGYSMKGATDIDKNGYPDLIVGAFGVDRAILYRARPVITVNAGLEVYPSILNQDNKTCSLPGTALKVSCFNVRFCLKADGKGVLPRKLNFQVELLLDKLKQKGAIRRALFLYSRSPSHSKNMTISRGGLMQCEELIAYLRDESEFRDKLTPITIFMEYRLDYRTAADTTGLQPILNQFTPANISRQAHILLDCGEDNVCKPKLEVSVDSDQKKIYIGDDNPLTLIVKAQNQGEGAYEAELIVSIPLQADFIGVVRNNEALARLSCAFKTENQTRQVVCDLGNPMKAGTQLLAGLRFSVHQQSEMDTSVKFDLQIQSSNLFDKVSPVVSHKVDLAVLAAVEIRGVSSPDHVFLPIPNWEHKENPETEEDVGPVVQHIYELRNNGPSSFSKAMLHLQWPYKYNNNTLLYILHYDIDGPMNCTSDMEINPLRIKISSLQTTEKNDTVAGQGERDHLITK
αvβ3 integrin, sequence (P06756 891-1048 partner limits assumed): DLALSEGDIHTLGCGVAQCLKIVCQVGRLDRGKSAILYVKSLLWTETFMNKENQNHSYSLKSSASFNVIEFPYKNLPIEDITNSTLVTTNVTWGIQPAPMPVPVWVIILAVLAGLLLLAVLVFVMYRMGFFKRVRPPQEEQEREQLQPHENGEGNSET
αvβ3 integrin, sequence (P05106 27-788): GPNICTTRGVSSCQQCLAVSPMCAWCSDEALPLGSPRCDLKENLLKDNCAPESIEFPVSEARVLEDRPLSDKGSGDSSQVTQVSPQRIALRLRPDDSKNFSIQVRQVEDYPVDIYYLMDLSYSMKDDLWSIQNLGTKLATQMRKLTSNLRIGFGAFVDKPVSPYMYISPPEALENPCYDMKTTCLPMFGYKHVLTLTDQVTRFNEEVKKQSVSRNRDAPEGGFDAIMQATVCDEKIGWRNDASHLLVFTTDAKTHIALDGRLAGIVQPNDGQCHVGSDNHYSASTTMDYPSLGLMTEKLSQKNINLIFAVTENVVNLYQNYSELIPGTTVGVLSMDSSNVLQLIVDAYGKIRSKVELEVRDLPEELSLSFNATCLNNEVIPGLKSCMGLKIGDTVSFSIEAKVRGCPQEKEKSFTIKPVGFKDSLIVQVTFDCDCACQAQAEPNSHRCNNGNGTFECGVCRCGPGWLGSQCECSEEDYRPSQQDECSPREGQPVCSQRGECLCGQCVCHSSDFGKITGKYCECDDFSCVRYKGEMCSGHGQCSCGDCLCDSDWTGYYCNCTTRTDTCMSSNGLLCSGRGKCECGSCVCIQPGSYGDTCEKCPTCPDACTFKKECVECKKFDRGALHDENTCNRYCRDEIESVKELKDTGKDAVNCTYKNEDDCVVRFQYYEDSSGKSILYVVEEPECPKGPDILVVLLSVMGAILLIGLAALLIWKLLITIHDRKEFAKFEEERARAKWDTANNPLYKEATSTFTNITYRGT

One experiment has as its target αvβ3 integrin (Homo sapiens, UniProt P05106+P06756). Description: Inhibition of biotinylated LXW7 binding to αvβ3-K562 cells (flow cytometry). On the set-up: expressed in transfected cells; host or cells: K562 (gift of Dr. Yoshikazu Takada, UC Davis). To be noted: LXW9-92: inhibiting the binding of biotinylated LXW7 against αvβ3-K562 cells, LXW7 as internal reference. As to the method: The apparent IC50 were calculated using Graph Prism software (≦www.graphpad.com≧).
The samples were analyzed with Coulter XL-MCL flow cytometry. The histogram and mean fluorescence intensity (MFI) were determined. The apparent Kd, IC50 were calculated using Graph Prism software (≦www.graphpad.com≧).
(In general: In flow cytometry, cells or beads pass a laser one at a time.)
Molecule `CC(C)[C@H]1NC(=O)[C@@H](CC(=O)O)NC(=O)[C@H](CC(=O)O)NC(=O)CNC(=O)[C@H](CCCCNC(=N)N)NC(=O)CNC(=O)[C@H](N)CSSC[C@H](C(N)=O)NC1=O` [LXW51, cG-HoArg-GDdvc] (H-[dC]G[hArg]GD[dD][dV][dC]-NH2; disulfide 1-8) gave an IC50 of over 20000 nM.

For `CC(C)[C@H]1NC(=O)[C@@H](CC(=O)O)NC(=O)[C@H](CC(=O)O)NC(=O)CN(C)C(=O)[C@H](CCCNC(=N)N)NC(=O)CNC(=O)[C@H](N)CSSC[C@H](C(N)=O)NC1=O` [LXW54, cGR-Sar-Ddvc] (H-[dC]GR[Sar]D[dD][dV][dC]-NH2; disulfide 1-8), the IC50 is over 20000 nM.

Take `CC(C)[C@H]1NC(=O)[C@@H](CC(=O)O)NC(=O)[C@H](CC(=O)O)N(C)C(=O)CNC(=O)[C@H](CCCNC(=N)N)NC(=O)CNC(=O)[C@H](N)CSSC[C@H](C(N)=O)NC1=O` [LXW55, cGRG-(NMe)Asp-dvc] (H-[dC]GRG[NMeD][dD][dV][dC]-NH2; disulfide 1-8): the IC50 was over 20000 nM.

With `CC(C)[C@H]1NC(=O)[C@@H](CC(=O)O)NC(=O)[C@H](CC(=O)O)NC(=O)CNC(=O)[C@H](CNC(=N)N)NC(=O)CNC(=O)[C@H](N)CSSC[C@H](C(N)=O)NC1=O` [LXW58, cG-Agp-GDdvc] (H-[dC]G[Agp]GD[dD][dV][dC]-NH2; disulfide 1-8), the IC50 is over 20000 nM.

As to `CC(C)[C@H]1NC(=O)[C@@H](CC(=O)O)NC(=O)[C@H](CCC(=O)O)NC(=O)CNC(=O)[C@H](CNC(=N)N)NC(=O)CNC(=O)[C@H](N)CSSC[C@H](C(N)=O)NC1=O` [LXW59, cG-Agp-GEdvc] (H-[dC]G[Agp]GE[dD][dV][dC]-NH2; disulfide 1-8), the IC50 is over 20000 nM.

The experiment is the same for the next values; noted with them: LXW9-92: inhibiting the binding of biotinylated LXW7 against αvβ3-K562 cells; class symbols.
`CC(C)[C@H]1NC(=O)[C@@H](CC(=O)O)NC(=O)[C@H](CC(=O)O)NC(=O)CNC(=O)[C@H](CCCNC(=N)N)N(C)C(=O)CNC(=O)[C@H](N)CSSC[C@H](C(N)=O)NC1=O` [LXW53, cG-(NMe)Arg-GDdvc] (H-[dC]G[NMeR]GD[dD][dV][dC]-NH2; disulfide 1-8) yielded an IC50 of under 1000 nM.

`CC(C)[C@H]1NC(=O)[C@@H](CC(=O)O)NC(=O)[C@H](CC(=O)O)NC(=O)CNC(=O)[C@H](CCCNC(=N)N)NC(=O)CNC(=O)[C@H](NC(=O)CCN)CSSC[C@H](C(N)=O)NC1=O` [LXW56, 3-amino propanoyl-cGRGDdvc] (H-[βAla][dC]GRGD[dD][dV][dC]-NH2; disulfide 2-9) yielded an IC50 of under 1000 nM.

`CC(C)[C@H]1NC(=O)[C@@H](CC(=O)O)NC(=O)[C@H](CC(=O)O)NC(=O)CNC(=O)[C@H](CCCNC(=N)N)NC(=O)CNC(=O)[C@H](NC(=O)CCC(=O)NCCOCCOCCN)CSSC[C@H](C(N)=O)NC1=O` [LXW57, (Ebes)-cGRGDdvc] ({NH(CH2CH2O)2CH2CH2NH2-Suc}-[dC]GRGD[dD][dV][dC]-NH2; disulfide 1-8) yielded an IC50 of under 1000 nM.

Consider `N=C(N)NCCC[C@@H]1NC(=O)CNC(=O)[C@H](N)CSSC[C@@H](C(N)=O)NC(=O)[C@@H](CC(=O)O)NC(=O)[C@@H](CO)NC(=O)[C@H](CC(=O)O)NC(=O)CNC1=O` [LXW62, cGRGDsdC] (H-[dC]GRGD[dS][dD]C-NH2; disulfide 1-8), for which the IC50 was over 10000 nM.

Molecule `N=C(N)NCCC[C@@H]1NC(=O)CNC(=O)[C@H](N)CSSC[C@H](C(N)=O)NC(=O)[C@@H](Cc2cccc3ccccc23)NC(=O)[C@@H](CC(=O)O)NC(=O)[C@H](CC(=O)O)NC(=O)CNC1=O` [LXW64, cGRGDd-DNal1-c] yielded an IC50 of under 1000 nM.

In the case of `N=C(N)NCCC[C@@H]1NC(=O)CNC(=O)[C@H](N)CSSC[C@H](C(N)=O)NC(=O)[C@@H](Cc2ccc3ccccc3c2)NC(=O)[C@@H](CC(=O)O)NC(=O)[C@H](CC(=O)O)NC(=O)CNC1=O` [LXW65, cGRGDd-DNal2-c], the IC50 was under 1000 nM.

On to `N=C(N)NCCC[C@@H]1NC(=O)CNC(=O)[C@H](N)CSSC[C@H](C(N)=O)NC(=O)[C@@H](Cc2ccsc2)NC(=O)[C@@H](CC(=O)O)NC(=O)[C@H](CC(=O)O)NC(=O)CNC1=O` [LXW66, cGRGDd-D3Thi-c], for which the IC50 is under 1000 nM.

Molecule `N=C(N)NCCC[C@@H]1NC(=O)CNC(=O)[C@H](N)CSSC[C@H](C(N)=O)NC(=O)[C@@H](Cc2cccs2)NC(=O)[C@@H](CC(=O)O)NC(=O)[C@H](CC(=O)O)NC(=O)CNC1=O` [LXW67, cGRGDd-D2Thi-c] gave an IC50 of under 1000 nM.

For the molecule `N=C(N)NCCC[C@@H]1NC(=O)CNC(=O)[C@H](N)CSSC[C@H](C(N)=O)NC(=O)[C@@H](Cc2c[nH]c3ccccc23)NC(=O)[C@@H](CC(=O)O)NC(=O)[C@H](CC(=O)O)NC(=O)CNC1=O` [LXW68, cGRGDdwc] (H-[dC]GRGD[dD][dW][dC]-NH2; disulfide 1-8), the IC50 was under 1000 nM.

The molecule `N=C(N)NCCC[C@@H]1NC(=O)CNC(=O)[C@H](N)CSSC[C@H](C(N)=O)NC(=O)[C@@H](Cc2cscn2)NC(=O)[C@@H](CC(=O)O)NC(=O)[C@H](CC(=O)O)NC(=O)CNC1=O` [LXW69, cGRGDd-DTha-c] returned an IC50 of 1000 to 10000 nM.

Consider `N=C(N)NCCC[C@@H]1NC(=O)CNC(=O)[C@H](N)CSSC[C@H](C(N)=O)NC(=O)[C@@H]2CC[C@H](c3ccccc3)N2C(=O)[C@@H](CCCNC(N)=O)NC(=O)[C@H](CC(=O)O)NC(=O)CNC1=O` [LXW70, cGRGD-DCit-Ppca-c] (H-[dC]GRGD[dCit][Pro(5R-Ph)][dC]-NH2; disulfide 1-8), for which the IC50 was over 10000 nM.

`N=C(N)NCCC[C@@H]1NC(=O)CNC(=O)[C@H](N)CSSC[C@H](C(N)=O)NC(=O)[C@@H]2CC[C@H](c3ccccc3)N2C(=O)[C@@H](CCC(=O)O)NC(=O)[C@H](CC(=O)O)NC(=O)CNC1=O` [LXW71, cGRGDe-Ppca-c] (H-[dC]GRGD[dE][Pro(5R-Ph)][dC]-NH2; disulfide 1-8) showed an IC50 of 1000 to 10000 nM.

`N=C(N)NCCC[C@@H]1NC(=O)CNC(=O)[C@H](N)CSSC[C@H](C(N)=O)NC(=O)[C@@H](Cc2csc3ccccc23)NC(=O)[C@@H](CCCNC(N)=O)NC(=O)[C@H](CC(=O)O)NC(=O)CNC1=O` [LXW73, cGRGD-DCit-DBta-c] (H-[dC]GRGD[dCit][dBta][dC]-NH2; disulfide 1-8) yielded an IC50 of 1000 to 10000 nM.

`CC(C)C(=O)N[C@@H]1CSSC[C@H](C(N)=O)NC(=O)[C@@H](C(C)C)NC(=O)[C@@H](CC(=O)O)NC(=O)[C@H](CC(=O)O)NC(=O)CNC(=O)[C@H](CCCNC(=N)N)NC(=O)CNC1=O` [LXW76, isobutyryl-cGRGDdvc] (Isobutyryl-[dC]GRGD[dD][dV][dC]-NH2; disulfide 1-8) yielded an IC50 of under 1000 nM.

The molecule `CCCCC(=O)N[C@@H]1CSSC[C@H](C(N)=O)NC(=O)[C@@H](C(C)C)NC(=O)[C@@H](CC(=O)O)NC(=O)[C@H](CC(=O)O)NC(=O)CNC(=O)[C@H](CCCNC(=N)N)NC(=O)CNC1=O` [LXW77, valeryl-cGRGDdvc] (Pentanoyl-[dC]GRGD[dD][dV][dC]-NH2; disulfide 1-8) displayed an IC50 of 1000 to 10000 nM.

`CC(C)[C@H]1NC(=O)[C@@H](CC(=O)O)NC(=O)[C@H](CC(=O)O)NC(=O)CNC(=O)[C@H](CCCNC(=N)N)NC(=O)CNC(=O)[C@H](NC(=O)CC2CCCCC2)CSSC[C@H](C(N)=O)NC1=O` [LXW78, cyclohexyl acetyl-cGRGDdvc] (Cyclohexylacetyl-[dC]GRGD[dD][dV][dC]-NH2; disulfide 1-8) showed an IC50 of 1000 to 10000 nM.

Take `CC(C)[C@H]1NC(=O)[C@@H](CC(=O)O)NC(=O)[C@H](CC(=O)O)NC(=O)CNC(=O)[C@H](CCCNC(=N)N)NC(=O)CNC(=O)[C@H](NC(=O)CCc2ccccc2)CSSC[C@H](C(N)=O)NC1=O` [LXW80, 3-phenyl propionyl-cGRGDdvc] (Hydrocinnamoyl-[dC]GRGD[dD][dV][dC]-NH2; disulfide 1-8): the IC50 is under 1000 nM.

Molecule `CC(C)[C@H]1NC(=O)[C@@H](CC(=O)O)NC(=O)[C@H](CC(=O)O)NC(=O)CNC(=O)[C@H](CCCNC(=N)N)NC(=O)CNC(=O)[C@H](NC(=O)Cc2ccc(Cl)cc2)CSSC[C@H](C(N)=O)NC1=O` [LXW81, p-chlorophenyl acetyl-cGRGDdvc] ({Phenylacetyl(4-Cl)}-[dC]GRGD[dD][dV][dC]-NH2; disulfide 1-8) registered an IC50 of 1000 to 10000 nM.

`CC(C)[C@H]1NC(=O)[C@@H](CC(=O)O)NC(=O)[C@H](CC(=O)O)NC(=O)CNC(=O)[C@H](CCCNC(=N)N)NC(=O)CNC(=O)[C@H](NC(=O)c2ccc([N+](=O)[O-])cc2)CSSC[C@H](C(N)=O)NC1=O` [LXW82, 4-nitrobezoyl-cGRGDdvc] ({Benzoyl(4-NO2)}-[dC]GRGD[dD][dV][dC]-NH2; disulfide 1-8) gave an IC50 of 1000 to 10000 nM.

The molecule `CC(C)[C@H]1NC(=O)[C@@H](CC(=O)O)NC(=O)[C@H](CC(=O)O)NC(=O)CNC(=O)[C@H](CCCNC(=N)N)NC(=O)CNC(=O)[C@H](NC(=O)c2cc(O)cc(O)c2)CSSC[C@H](C(N)=O)NC1=O` [LXW83, 3,5-dihydroxy beznoyl-cGRGDdvc] ({Benzoyl(3,5-(OH)2)}-[dC]GRGD[dD][dV][dC]-NH2; disulfide 1-8) displayed an IC50 of under 1000 nM.

Molecule `CC(C)[C@H]1NC(=O)[C@@H](CC(=O)O)NC(=O)[C@H](CC(=O)O)NC(=O)CNC(=O)[C@H](CCCNC(=N)N)NC(=O)CNC(=O)[C@H](NC(=O)c2ccc(-c3ccccc3)cc2)CSSC[C@H](C(N)=O)NC1=O` [LXW84, biphenyl-4-carbonyl-cGRGDdvc] ({Benzoyl(4-Ph)}-[dC]GRGD[dD][dV][dC]-NH2; disulfide 1-8) returned an IC50 of under 1000 nM.

In turn, `CC(C)[C@H]1NC(=O)[C@@H](CC(=O)O)NC(=O)[C@H](CC(=O)O)NC(=O)CNC(=O)[C@H](CCCNC(=N)N)NC(=O)CNC(=O)[C@H](NC(=O)c2ccc(C(F)(F)F)cc2)CSSC[C@H](C(N)=O)NC1=O` [LXW85, 4-(trifluoromethyl)benzoyl-cGRGDdvc] ({Benzoyl(4-CF3)}-[dC]GRGD[dD][dV][dC]-NH2; disulfide 1-8) had an IC50 of under 1000 nM.

For the molecule `Cc1nc(C(=O)N[C@@H]2CSSC[C@H](C(N)=O)NC(=O)[C@@H](C(C)C)NC(=O)[C@@H](CC(=O)O)NC(=O)[C@H](CC(=O)O)NC(=O)CNC(=O)[C@H](CCCNC(=N)N)NC(=O)CNC2=O)cs1` [LXW86, 2-Methylthiazole-4-carbonyl-cGRGDdvc] (X3-[dC]GRGD[dD][dV][dC]-NH2; disulfide 1-8), the IC50 was under 1000 nM.

For the origin of these results see US9073974B2, “RGD-containing cyclic peptides” (The Regents of the University of California, priority 2009, dated 2015).
